# According to PMC9699003, “Arene Variation of Highly Cytotoxic Tridentate Naphthoquinone-Based Ruthenium(II) Complexes and In-Depth In Vitro Studies” (Pharmaceutics, 2022):
# How the values were obtained:
# Format in all cases: cell-based, human
# [1] = tested on: CH1/PA-1 ovarian teratocarcinoma cells; test: MTT assay (cytotoxicity); details: CH1/PA-1, MTT
# Procedure: (§1) CH1/PA-1 ovarian teratocarcinoma cells (provided by L. R. Kelland, CRC Centre for Cancer Therapeutics, Institute of Cancer Research, Sutton, UK; confirmed by STR profiling as PA-1 ovarian teratocarcinoma cells at Multiplexion, Heidelberg, Germany), SW480 colon carcinoma and A549 non-small cell lung cancer cells (both obtained from the American Type Culture Collection, Manassas, VA, USA) were grown as adherent cultures in 75 cm² culture flasks (CytoOne, Starlab, Hamburg, Germany) by using minimal essential medium (MEM) supplemented with 1 mM sodium pyruvate, 4 mM L-glutamine, 1% (v/v) nonessential amino acids from 100-fold stock (all purchased from Sigma-Aldrich) and 10% heat-inactivated fetal bovine serum (BioWest, Nuaillé, France). Cells were maintained under standard culture conditions with 5% CO2 at 37 °C in a humidified atmosphere.
# (§2) The 3-(4,5-dimethylthiazol-2-yl)-2,5-diphenyl-2H-tetrazolium bromide (MTT, Acros Organics, Geel, Belgium) assay was used to detect the cytotoxicity of the compounds after 24 h and 96 h incubation. In brief, cells were harvested from culture flasks and the following cell numbers (each in 100 µL) were seeded into 96-well culture plates (CytoOne, tissue culture treated, Starlab, Hamburg, Germany) for 24 h incubation: 1 × 10^4 (CH1/PA-1), 1 × 10^4 (SW480) and 1.5 × 10^4 (A549) cells per well; and for 96 h incubation: 1 × 10^3 (CH1/PA-1), 2 × 10^3 (SW480) and 3 × 10^3 (A549) cells per well. After 24 h, cells resuming their exponential growth rate were treated with test compounds at nine concentrations obtained by serial two-fold dilution. Stock solutions were prepared in DMSO (20 mM or 40 mM) and diluted in supplemented MEM. An amount of 100 µL of each concentration was added to the plates in triplicates and cells were exposed for 24 or 96 h. Afterward, the medium was replaced with 100 µL of MTT solution (5 mg/mL) in phosphate-buffered saline (PBS, Sigma-Aldrich), diluted 1:7 in RPMI 1640 medium (supplemented with 4 mM L-glutamine and 10% heat-inactivated FBS). Upon cell-viability-dependent conversion of the yellow, water-soluble tetrazolium salt into purple formazan products for 4 h, the crystals were dissolved in 150 µL DMSO. The absorbance of the resulting solutions, which is directly proportional to the number of viable cells, was measured at 550 nm (and at 690 nm as a reference) with a microplate reader (ELx808, BioTek, Winoosky, VT, USA) and Gen5TM 3.08 software (BioTek). Blank-corrected optical densities were subjected to graphical evaluation and interpolation of IC50 values. At least three biologically and technically independent experiments were performed.
# [2] = tested on: SW480 colon carcinoma cells; test: MTT assay (cytotoxicity)
# Procedure: as §1, §2
# [3] = tested on: A549 non-small cell lung cancer cells; test: MTT assay (cytotoxicity)
# Procedure: as §1, §2
# CH1/PA-1 cells = test: Cell cycle distribution (PI staining, flow cytometry); details: CH1/PA-1, 24 h
# Procedure: (§3) For the flow-cytometric determination of cell cycle distribution, CH1/PA-1 (8 × 10^4 cells/well) and SW480 (1.2 × 10^5 cells/well) cells were seeded into 12-well plates (CytoOne, tissue culture treated) in 1 mL supplemented MEM. In the first 24 h, the cells were allowed to settle and resume exponential growth. […] Gemcitabine (Sigma-Aldrich, 0.01 and 0.05 µM) and etoposide (Sigma-Aldrich, 0.25, 0.5 and 1 µM) were used as positive controls. After removal of the treatment medium, cells were washed with 1 mL PBS and trypsinized. Cells were collected in Eppendorf tubes and centrifuged (300 g, 3 min), and the supernatant was discarded. In the following step, cells were washed with 1 mL PBS and resuspended in 500 µL PI/HFS buffer (0.1% v/v Triton X-100, 0.1% w/v sodium citrate, in PBS) containing 25 µg/mL propidium iodide (PI, 1.0 mg/mL, Sigma-Aldrich). The staining was carried out overnight at 4 °C in the dark, and 200 µL of the cell suspension was loaded into 96-well round bottom plates (Falcon). Samples were measured with a Millipore Guava easyCyte 8HT flow cytometer with GuavaSoft™ software in the InCyte-modus, and 10,000 events/sample were detected. Data were analyzed with FlowJo software v 10.8.1 (Tree Star, Ashland, OR, USA) using Watson algorithm. Percentages of cells in the three cell cycle phases (G1/G0, S and G2/M) were calculated by integrating the resulting histograms of fluorescence signals (Figures S29 and S30). Experiments were repeated at least three times. For statistical evaluation, an unpaired t-test with Welch’s correction was performed by using GraphPad PRISM software.
# SW480 cells = test: as above; details: SW480, 24 h
# Procedure: as §3
compound,measurement,setting,value
CC1=C([O-])C([O-])(n2cccn2)c2ccccc2C1=O.Cc1c(C)c(C)c(C)c(C)c1C.[Ru+2] (stereo not drawn) [Compound 6],IC50,[1]; 24 h exposure,57 ± 16 µM
same,IC50,[1]; 96 h exposure,35 ± 4 µM
same,IC50,[2]; 24 h exposure,2.8 ± 1.6 µM
same,IC50,[2]; 96 h exposure,0.27 ± 0.06 µM
same,IC50,[3]; 24 h exposure,38 ± 21 µM
same,IC50,[3]; 96 h exposure,3.4 ± 0.6 µM
same,Cells in G1/G0 phase,CH1/PA-1 cells; 25 µM,25.1 ± 2.5%
same,Cells in G2/M phase,CH1/PA-1 cells; 25 µM,44.2 ± 7.1%
same,Cells in S phase,CH1/PA-1 cells; 25 µM,35.0 ± 0.9%
same,Cells in G1/G0 phase,CH1/PA-1 cells; 50 µM,22.8 ± 4.7%
same,Cells in G2/M phase,CH1/PA-1 cells; 50 µM,40.8 ± 2.5%
same,Cells in S phase,CH1/PA-1 cells; 50 µM,38.6 ± 4.2%
same,Cells in G1/G0 phase,CH1/PA-1 cells; 75 µM,25.6 ± 3.5%
same,Cells in G2/M phase,CH1/PA-1 cells; 75 µM,38.4 ± 3.7%
same,Cells in S phase,CH1/PA-1 cells; 75 µM,39.4 ± 2.5%
same,Cells in G1/G0 phase,SW480 cells; 0.16 µM,23.2 ± 4.1%
same,Cells in G2/M phase,SW480 cells; 0.16 µM,35.7 ± 0.7%
same,Cells in S phase,SW480 cells; 0.16 µM,43.7 ± 4.8%
same,Cells in G1/G0 phase,SW480 cells; 0.31 µM,15.0 ± 3.8%
same,Cells in G2/M phase,SW480 cells; 0.31 µM,32.6 ± 4.7%
same,Cells in S phase,SW480 cells; 0.31 µM,53.7 ± 4.9%
same,Cells in G1/G0 phase,SW480 cells; 0.63 µM,24.2 ± 2.0%
same,Cells in G2/M phase,SW480 cells; 0.63 µM,25.6 ± 4.5%
same,Cells in S phase,SW480 cells; 0.63 µM,53.5 ± 2.6%
